Data from ChEMBL document CHEMBL1201862, “PubChem BioAssay data set” (2004).
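96-well plates; 48 h exposure; 5 concentrations. Endpoints by linear interpolation between flanking doses. Not reached: highest tested concentration assigned. The concentration for 50% growth inhibition is given as GI50.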 The source made the active and inactive calls. Cut-off read from the data, not from the text of the source: active = GI50 up to about 1.1 µM and inactive = higher.

How the values were obtained:
Test in all cases: NCI tumour cell line growth inhibition, 48 h
786-0 = system: 786-0
ACHN = system: ACHN
CCRF-CEM = system: CCRF-CEM
HOP-62 = system: HOP-62
IGROV-1 = system: IGROV-1
KM12 = system: KM12
M14 = system: M14
NCI-H226 = system: NCI-H226
NCI-H460 = system: NCI-H460
OVCAR-3 = system: OVCAR-3
OVCAR-4 = system: OVCAR-4
RPMI-8226 = system: RPMI-8226
SN12C = system: SN12C
TK-10 = system: TK-10
UACC-257 = system: UACC-257
UACC-62 = system: UACC-62
UO-31 = system: UO-31
NCI/ADR-RES = system: NCI/ADR-RES
T47D = system: T47D
Hs-578T = system: Hs-578T

Structure (SMILES) | GI50 (786-0) | GI50 (ACHN) | GI50 (CCRF-CEM) | GI50 (HOP-62) | GI50 (IGROV-1) | GI50 (KM12) | GI50 (M14) | GI50 (NCI-H226) | GI50 (NCI-H460) | GI50 (OVCAR-3) | GI50 (OVCAR-4) | GI50 (RPMI-8226) | GI50 (SN12C) | GI50 (TK-10) | GI50 (UACC-257) | GI50 (UACC-62) | GI50 (UO-31) | GI50 (NCI/ADR-RES) | GI50 (T47D) | GI50 (Hs-578T)
COC(=O)C(Cc1c[nH]c2ccccc12)NC(=O)C(Cc1c[nH]c2ccccc12)NC(=O)OCc1ccccc1 (centres undefined) | 16.2 µM (inactive) | 21.6 µM (inactive) | 21.7 µM (inactive) | 19.7 µM (inactive) | 19.3 µM (inactive) | 19.1 µM (inactive) | 18.2 µM (inactive) | 22.1 µM (inactive) | 18.1 µM (inactive) | 15.5 µM (inactive) | 16.4 µM (inactive) | 11.7 µM (inactive) | 17.1 µM (inactive) | 22.8 µM (inactive) | > 100 µM (inactive) | 19.3 µM (inactive) | 19.3 µM (inactive) |  |  | 
C=CCN1CCC23c4c5ccc(O)c4OC2C(=NN=C2CCC4(O)C6Cc7ccc(O)c8c7C4(CCN6CC=C)C2O8)CCC3(O)C1C5 (centres undefined) | 18.3 µM (inactive) | 20.2 µM (inactive) | 34.8 µM (inactive) | 21.4 µM (inactive) | > 100 µM (inactive) | 21.2 µM (inactive) | 17.8 µM (inactive) | > 100 µM (inactive) | 20.5 µM (inactive) | 18.5 µM (inactive) | 22 µM (inactive) | 39.2 µM (inactive) | 23 µM (inactive) | 21.6 µM (inactive) | 23.9 µM (inactive) | 21 µM (inactive) | > 100 µM (inactive) |  |  | 
C=CC1=CC(C)C[C@]1(O)C(=O)OC (some centres undefined) | < 0.01 µM (active) | < 0.01 µM (active) | < 0.01 µM (active) | < 0.01 µM (active) | < 0.01 µM (active) | < 0.01 µM (active) | < 0.01 µM (active) | < 0.01 µM (active) | < 0.01 µM (active) | < 0.01 µM (active) | < 0.01 µM (active) | < 0.01 µM (active) | < 0.01 µM (active) | < 0.01 µM (active) | < 0.01 µM (active) | < 0.01 µM (active) | < 0.01 µM (active) |  |  | 
CN/N=C(\C)CC(=O)Nc1cccc(Cl)c1C | > 100 µM (inactive) | > 100 µM (inactive) | 96.6 µM (inactive) | > 100 µM (inactive) | > 100 µM (inactive) | > 100 µM (inactive) | > 100 µM (inactive) | > 100 µM (inactive) | > 100 µM (inactive) | > 100 µM (inactive) | > 100 µM (inactive) | > 100 µM (inactive) | > 100 µM (inactive) | > 100 µM (inactive) | > 100 µM (inactive) | > 100 µM (inactive) | > 100 µM (inactive) |  |  | 
COc1c2c(cc3c1C(=O)Cc1ccc4c(c1CN(C)CC3)OCO4)OCO2 | > 100 µM (inactive) | > 100 µM (inactive) | 70.5 µM (inactive) | > 100 µM (inactive) | 18.5 µM (inactive) | > 100 µM (inactive) | 74.3 µM (inactive) | 59.2 µM (inactive) | 67.3 µM (inactive) | > 100 µM (inactive) | 75.5 µM (inactive) | 85.3 µM (inactive) | > 100 µM (inactive) | > 100 µM (inactive) | > 100 µM (inactive) | > 100 µM (inactive) | 12.2 µM (inactive) |  |  | 
COc1ccc(C(=O)C(C(=O)CCC(=O)Nc2ccc(Cl)c(Cl)c2)c2ccc(OC)cc2)cc1 (centres undefined) | > 100 µM (inactive) | > 100 µM (inactive) | > 100 µM (inactive) | > 100 µM (inactive) | > 100 µM (inactive) | > 100 µM (inactive) | > 100 µM (inactive) | > 100 µM (inactive) | > 100 µM (inactive) | > 100 µM (inactive) | > 100 µM (inactive) | > 100 µM (inactive) | > 100 µM (inactive) | > 100 µM (inactive) | > 100 µM (inactive) | > 100 µM (inactive) | > 100 µM (inactive) |  |  | 
Cc1cc2nc3c(C#N)c(-c4ccccc4)cc(Nc4ccc(Cl)cc4)n3c2cc1C | > 100 µM (inactive) | > 100 µM (inactive) | 4.53 µM (inactive) | > 100 µM (inactive) |  | 59.4 µM (inactive) | > 100 µM (inactive) | > 100 µM (inactive) | 28.5 µM (inactive) | 6.05 µM (inactive) | > 100 µM (inactive) | 5.6 µM (inactive) | > 100 µM (inactive) | > 100 µM (inactive) | > 100 µM (inactive) |  | > 100 µM (inactive) | > 100 µM (inactive) | 6.24 µM (inactive) | 
Cc1cc(N)c2cc(NC(=O)CCCCCCCCC(=O)Nc3ccc4nc(C)cc(N)c4c3)ccc2n1 | 28.2 µM (inactive) | 69.5 µM (inactive) | 10.7 µM (inactive) | > 61.9 µM (inactive) | > 30.5 µM (inactive) | 5.57 µM (inactive) | > 84.9 µM (inactive) | 2.43 µM (inactive) | 2.47 µM (inactive) | 98.6 µM (inactive) | > 100 µM (inactive) | 5.53 µM (inactive) | 3.87 µM (inactive) | 45.8 µM (inactive) | > 50.4 µM (inactive) | > 77.3 µM (inactive) | > 100 µM (inactive) |  |  | 
Nc1ccc2c(c1)C1Oc3ccccc3CC1CO2 (centres undefined) | > 100 µM (inactive) |  | > 100 µM (inactive) | > 100 µM (inactive) | > 100 µM (inactive) | > 100 µM (inactive) | > 100 µM (inactive) | > 100 µM (inactive) |  | > 100 µM (inactive) |  | > 100 µM (inactive) | > 100 µM (inactive) | > 100 µM (inactive) | > 100 µM (inactive) | > 100 µM (inactive) | > 100 µM (inactive) | > 100 µM (inactive) | 76 µM (inactive) | 
CC(C)Oc1c(-c2ccc(F)cc2)c(O)c2c3c1oc(=O)n3C=CC2C (centres undefined) | 14.7 µM (inactive) | 14.5 µM (inactive) | 11 µM (inactive) | 14.8 µM (inactive) | 15.3 µM (inactive) | 13.2 µM (inactive) | 15.1 µM (inactive) | 13.9 µM (inactive) | 14.2 µM (inactive) | 14.4 µM (inactive) | 10.7 µM (inactive) | 6.27 µM (inactive) | 11.5 µM (inactive) | 16.9 µM (inactive) | 13.2 µM (inactive) | 14.6 µM (inactive) | 12.2 µM (inactive) | 13.8 µM (inactive) |  | 20.2 µM (inactive)
CCOC(=O)C1N(S(=O)(=O)c2ccc(C)cc2)CCC12c1ccccc1N(C(C)=O)C2c1ccc(OC)c(OC)c1 (centres undefined) | > 100 µM (inactive) | > 100 µM (inactive) | > 100 µM (inactive) | > 100 µM (inactive) | > 100 µM (inactive) | > 100 µM (inactive) | > 100 µM (inactive) | 19.9 µM (inactive) | > 100 µM (inactive) | > 100 µM (inactive) | 71.1 µM (inactive) | 65.5 µM (inactive) | > 100 µM (inactive) | > 100 µM (inactive) | > 100 µM (inactive) | > 100 µM (inactive) | 42.7 µM (inactive) |  |  | 
CC(C)(C)C(=O)Nc1ccccc1Br | > 100 µM (inactive) | > 100 µM (inactive) | > 100 µM (inactive) | > 100 µM (inactive) | > 100 µM (inactive) | > 100 µM (inactive) | > 100 µM (inactive) | > 100 µM (inactive) | > 100 µM (inactive) | > 100 µM (inactive) | > 100 µM (inactive) | > 100 µM (inactive) | > 100 µM (inactive) | > 100 µM (inactive) | > 100 µM (inactive) | > 100 µM (inactive) | > 100 µM (inactive) |  |  | 
CCOC(=O)C12CCCC1(O)N(NC(=O)OC)C(C)=C2C(=O)OC (centres undefined) | 20.4 µM (inactive) | > 100 µM (inactive) | > 100 µM (inactive) | > 100 µM (inactive) | > 100 µM (inactive) | > 10 µM (inactive) | > 100 µM (inactive) | > 100 µM (inactive) | > 100 µM (inactive) | > 10 µM (inactive) | > 100 µM (inactive) | > 100 µM (inactive) | > 100 µM (inactive) | > 100 µM (inactive) | > 100 µM (inactive) | > 100 µM (inactive) | > 100 µM (inactive) |  |  | 
O=[N+]([O-])C(=C(c1ccccc1)c1ccccc1)[N+](=O)[O-] | 14.5 µM (inactive) | 12.8 µM (inactive) | 2.93 µM (inactive) | > 10 µM (inactive) | 5.96 µM (inactive) | 15.5 µM (inactive) | 11.9 µM (inactive) | 31.1 µM (inactive) | 5.57 µM (inactive) | 20.7 µM (inactive) | 14.5 µM (inactive) | 2.45 µM (inactive) | 15.5 µM (inactive) | 18.6 µM (inactive) | 13.1 µM (inactive) | 3.79 µM (inactive) | 22.1 µM (inactive) |  |  | 
O=C1/C(=C/c2cccc(Br)c2)CCc2ccccc21 | 16.3 µM (inactive) | 14.2 µM (inactive) | 3.26 µM (inactive) | 16 µM (inactive) | 11.4 µM (inactive) | 4.02 µM (inactive) | 15.8 µM (inactive) | 15.2 µM (inactive) | 15.2 µM (inactive) | 15.2 µM (inactive) | 13.1 µM (inactive) | 2.99 µM (inactive) | 15.4 µM (inactive) | 16.5 µM (inactive) | 14.8 µM (inactive) | 10.5 µM (inactive) | 13.8 µM (inactive) | 14 µM (inactive) |  | 6.05 µM (inactive)
Cc1ccc(C(=O)N/N=C(\N=N\c2ccccc2C(=O)O)c2ccc(N(C)C)cc2)cc1 | > 100 µM (inactive) |  | 43.5 µM (inactive) |  | > 100 µM (inactive) | 42.9 µM (inactive) | 64.6 µM (inactive) | > 100 µM (inactive) | 72.6 µM (inactive) | 22.2 µM (inactive) | 64.7 µM (inactive) | > 100 µM (inactive) | > 100 µM (inactive) | > 100 µM (inactive) | > 100 µM (inactive) |  | 80.4 µM (inactive) | 71.6 µM (inactive) |  | > 100 µM (inactive)
